Measured values reported in article PMC2909451 (European journal of pharmaceutical sciences : official …, 2010).
Counter-ions that a name gives are not always drawn. Like-named read-outs stand apart in the source and are kept apart here.

What was measured:
[1] = molecular target: T1, human apical sodium-dependent transporter (SLC10A2, ASBT) (Homo sapiens, UniProt Q12908); test: ASBT cis-inhibition of taurocholate uptake in ASBT-MDCK cells; conditions: for potency estimated from few doses: read-out: Ki estimated from one concentration; for inhibition at 25 µM / inhibition at 200 µM / inhibition at 1000 µM / inhibition at 5000 µM / inhibition at 10 µM / inhibition at 5 µM: read-out: percent taurocholate inhibited at the highest inhibitor concentration
T1 sequence (Q12908 1-348): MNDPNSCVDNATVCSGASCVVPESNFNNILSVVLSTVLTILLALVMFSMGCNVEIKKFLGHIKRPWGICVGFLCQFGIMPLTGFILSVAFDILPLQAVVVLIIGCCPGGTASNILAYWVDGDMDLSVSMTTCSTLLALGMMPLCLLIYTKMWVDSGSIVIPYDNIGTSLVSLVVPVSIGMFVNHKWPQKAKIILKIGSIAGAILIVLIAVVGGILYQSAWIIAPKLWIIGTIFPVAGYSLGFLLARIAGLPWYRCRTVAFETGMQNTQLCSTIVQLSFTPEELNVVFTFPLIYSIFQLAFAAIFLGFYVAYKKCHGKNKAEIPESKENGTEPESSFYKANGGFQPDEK

[2] = molecular target: T1, human apical sodium-dependent transporter (SLC10A2, ASBT)
[3] = Ki, inhibitor concentration range 0-50 μM, mean±S.E.
[4] = Ki, inhibitor concentration range 0-100 μM, mean±S.E.
[5] = Ki, inhibitor concentration range 0-200 μM, mean±S.E.
[6] = Ki, inhibitor concentration range 0-500 μM, mean±S.E.
[7] = Ki, inhibitor concentration range 0-1000 μM, mean±S.E.
[8] = Ki, inhibitor concentrations 0, 25 μM (Table 2), mean±S.E.
[9] = Reference Ki, from the comprehensive inhibition profile
[10] = Ki, inhibitor concentration range 0-25 μM, mean±S.E.
[11] = Ki, inhibitor concentration range 0-5000 μM, mean±S.E.
[12] = Ki, inhibitor concentration range 0-10 μM, mean±S.E.
[13] = Ki, inhibitor concentration range 0-5 μM, mean±S.E.

| Ki [1, 3] [µM] | Ki [1, 4] [µM] | Ki [1, 5] [µM] | Ki [1, 6] [µM] | Ki [1, 7] [µM] | Ki [1, 9] [µM] | potency estimated from few doses [1] [µM] | inhibition at 25 µM [1] [%] | inhibition at 200 µM [1] [%] | inhibition at 1000 µM [1] [%] | inhibition ([2]; 50 µM) [%] | inhibition ([2]; 100 µM) [%] | inhibition ([2]; 500 µM) [%] | Ki [1, 10] [µM] | inhibition at 10 µM [1] [%] | SMILES | other results |
| --- | --- | --- | --- | --- | --- | --- | --- | --- | --- | --- | --- | --- | --- | --- | --- | --- |
| 231 ± 87 | 451 ± 163 | 700 ± 196 | 686 ± 99 | 745 ± 74 | 745 | 601 ± 69 | 9.73 | 18 | 48.3 | 12 | 13.2 | 35.6 | – | – | CC(C)(C#N)c1cc(Cn2cncn2)cc(C(C)(C)C#N)c1 [Anastrozole] | Ki [1, 8]: 153 ± 79 µM |
| 84.3 ± 20.7 | 96.4 ± 16.2 | 121 ± 18 | 144 ± 20 | 149 ± 18 | 149 | 188 ± 21 | 8.86 | 46.6 | 79.4 | 30.5 | 37.6 | 63.6 | 166 ± 115 | – | NS(=O)(=O)c1cc2c(cc1C(F)(F)F)NC(Cc1ccccc1)NS2(=O)=O (centres unmarked) [Bendroflumethiazide, bendroflumethiazide] | – |
| 232 ± 60 | 343 ± 75 | 299 ± 33 | 338 ± 28 | 341 ± 22 | 341 | 354 ± 35 | 7.1 | 32.1 | 65.6 | 12.2 | 15.6 | 48 | 211 ± 108 | – | CCCCNc1cc(C(=O)O)cc(S(N)(=O)=O)c1Oc1ccccc1 [Bumetanide, bumetanide] | – |
| 93.2 ± 12.5 | 85.8 ± 7.6 | 96.2 ± 7.7 | 101 ± 7 | 101 ± 6 | 101 | 116 ± 3 | 10.5 | 53.9 | 86.7 | 27.6 | 43.8 | 73.7 | – | – | CCCCOc1cc(C(=O)NCCN(CC)CC)c2ccccc2n1 [Dibucaine hydrochloride, dibucaine hydrochloride] | Ki [1, 8]: 140 ± 17 µM |
| 124 ± 16 | 174 ± 26 | 221 ± 28 | 273 ± 30 | 301 ± 28 | 301 | 296 ± 22 | 16 | 36.4 | 66.1 | 19.5 | 26.5 | 52.4 | – | – | COc1ccc([C@@H]2Sc3ccccc3N(CCN(C)C)C(=O)[C@@H]2OC(C)=O)cc1 [Diltiazem hydrochloride, diltiazem hydrochloride] | Ki [1, 8]: 86.4 ± 11.9 µM |
| 27.4 ± 2 | 24.9 ± 1.9 | 25.1 ± 1.6 | 24.9 ± 1.6 | 24.8 ± 1.4 | 24.8 | 29.7 ± 2.4 | 40.2 | 82.9 | 96.2 | 52.6 | 77 | 95.5 | 24.5 ± 2.4 | – | CC(C)n1c(/C=C/C(O)CC(O)CC(=O)O)c(-c2ccc(F)cc2)c2ccccc21 (centres unmarked) [Fluvastatin, fluvastatin] | Ki [1, 11]: 24.8 ± 1.3 µM; inhibition at 5000 µM [1]: 99.8% |
| 80.5 ± 13.7 | 77.9 ± 8.4 | 84.2 ± 7.3 | 87.8 ± 6.8 | 86.4 ± 6 | 86.4 | 86.9 ± 12.5 | 23.2 | 59.1 | 89.5 | 27.3 | 46.8 | 76.4 | 53.9 ± 8.9 | 11 | COc1ccc2c(c1)c(CC(=O)O)c(C)n2C(=O)c1ccc(Cl)cc1 [Indomethacin, indomethacin] | Ki [1, 12]: 52.6 ± 13.6 µM |
| 42.7 ± 7.4 | 38.8 ± 5.1 | 36.4 ± 4.2 | – | – | 36.4 | 32.7 ± 2.7 | 25.7 | 82.5 | – | 49.7 | 68.1 | – | 60.4 ± 19.6 | 12.1 | COC(=O)C1=C(C)NC(C)=C(C(=O)OC(C)C)C1c1cccc2nonc12 (centres unmarked) [Isradipine, isradipine] | Ki [1, 13]: 17.5 ± 6.6 µM; Ki [1, 12]: 53.4 ± 35.1 µM; Ki ([1]; Ki, inhibitor concentration range 0-[…], mean±S.E.): 9.55 ± 3.67 µM; inhibition at 5 µM [1]: 14.4% |
| – | – | 255 ± 14 | 305 ± 26 | 328 ± 24 | 310 | 336 ± 26 | – | 34.2 | 64.7 | – | – | 49.7 | – | – | CC(C(=O)O)c1cccc(C(=O)c2ccccc2)c1 (centres unmarked) [Ketoprofen, ketoprofen] | Ki [1, 11]: 310 ± 28 µM; inhibition at 5000 µM [1]: 98% |
| 62.1 ± 11.3 | 86.9 ± 14.7 | 134 ± 25 | 132 ± 19 | 120 ± 16 | 120 | 116 ± 2 | 30.2 | 44.4 | 91.9 | 29.5 | 39.4 | 73.6 | 40.9 ± 7.09 | 5.99 | Cc1c(OCC(F)(F)F)ccnc1C[S+]([O-])c1nc2ccccc2[nH]1 (centres unmarked) [Lansoprazole] | Ki ([1]; Ki, inhibitor concentrations 0, 10 μM (Table 4), mean±S.E.): 103 ± 37 µM |
| 15.1 ± 2.4 | 14.3 ± 2 | 13.6 ± 1.9 | 13.3 ± 1.9 | – | 13.3 | 17.3 ± 2.7 | 46.9 | 90 | – | 60.3 | 79.4 | 96.2 | 14 ± 2.8 | 34.3 | CC(C)OC(=O)CCC/C=C\C[C@@H]1[C@@H](CC[C@@H](O)CCc2ccccc2)[C@H](O)C[C@@H]1O [Latanoprost, latanoprost] | Ki [1, 13]: 19.3 ± 6.7 µM; Ki [1, 12]: 12.2 ± 2.9 µM; inhibition at 5 µM [1]: 28.1% |
| 69.9 ± 19.5 | 59.6 ± 9.9 | 63.6 ± 8.2 | 64.9 ± 7.3 | 63.5 ± 6.6 | 63.5 | 59.5 ± 7.3 | – | 62.2 | 94 | 31.3 | 52.5 | 79.8 | – | – | CN1CCCCC1CCN1c2ccccc2Sc2ccc([S+](C)[O-])cc21 (centres unmarked) [Mesoridazine besylate] | – |
| 253 ± 126 | 189 ± 40 | 147 ± 23 | 164 ± 20 | 174 ± 19 | 174 | 194 ± 27 | 10.9 | 52.7 | 74.4 | 10.7 | 27.9 | 62.8 | – | – | N=C(N)c1ccc(OCCCCCOc2ccc(C(=N)N)cc2)cc1 [Pentamidine Isethionate, pentamidine isethionate] | Ki [1, 8]: 134 ± 82 µM |
| 59.8 ± 7.5 | 60.9 ± 5.3 | 64.9 ± 4.8 | 67.6 ± 4.8 | – | 67.6 | 56.1 ± 4.4 | 22.7 | 64.6 | – | 36.5 | 52.4 | 78.6 | 54.1 ± 10.9 | 14.4 | O=C(O)C[C@H](O)C[C@H](O)/C=C/c1c(C2CC2)nc2ccccc2c1-c1ccc(F)cc1 [Pitavastatin] | Ki [1, 13]: 27.9 ± 7.3 µM; Ki [1, 12]: 29.7 ± 5.9 µM; inhibition at 5 µM [1]: 10.4% |
| 148 ± 33 | 118 ± 15 | 115 ± 10 | 117 ± 8 | – | 117 | 123 ± 11 | 8.9 | 53.3 | – | 19.4 | 37.8 | 71 | – | 11.7 | CC(C)c1nc(N(C)S(C)(=O)=O)nc(-c2ccc(F)cc2)c1/C=C/[C@@H](O)C[C@@H](O)CC(=O)O [Rosuvastatin] | Ki [1, 12]: 46.7 ± 14.4 µM; Ki ([1]; Ki, inhibitor concentrations 0, 5 μM (Table 2), mean±S.E.): 196 ± 423 µM; Ki [1, 8]: 147 ± 67 µM; inhibition at 5 µM [1]: 1.54% |
| – | – | 1030 ± 344 | 913 ± 115 | 1110 ± 136 | 917 | 905 ± 105 | – | 34.6 | 11 | – | – | 25.7 | – | – | CN1CCN(CC/C=C2/c3ccccc3Sc3ccc(S(=O)(=O)N(C)C)cc32)CC1 [Thiothixene, thiothixene] | Ki [1, 11]: 917 ± 111 µM; inhibition at 5000 µM [1]: 83.3% |
| 32.7 ± 4.7 | – | 33.7 ± 3.1 | 33.6 ± 2.8 | 34.1 ± 2.7 | 34.1 | 33 ± 6.2 | 32.2 | 74 | 87.2 | 47.7 | 63.7 | 87.1 | 32.3 ± 6.3 | – | Clc1ccc(C(Cn2ccnc2)OCc2ccsc2Cl)c(Cl)c1 (centres unmarked) [Tioconazole, tioconazole] | Ki ([1]; inhibitor concentration range 0-100 μM, mean±S.E.): 32.8 ± 3.6 µM |

| SMILES | Ki [1, 3] [µM] | Ki [1, 4] [µM] | Ki [1, 5] [µM] | Ki [1, 6] [µM] | Ki [1, 7] [µM] | Ki [1, 9] [µM] | potency estimated from few doses [1] [µM] | inhibition at 25 µM [1] [%] | inhibition at 200 µM [1] [%] | inhibition at 1000 µM [1] [%] | inhibition ([2]; 50 µM) [%] | inhibition ([2]; 100 µM) [%] | inhibition ([2]; 500 µM) [%] | Ki [1, 10] [µM] | inhibition at 10 µM [1] [%] | other results |
| --- | --- | --- | --- | --- | --- | --- | --- | --- | --- | --- | --- | --- | --- | --- | --- | --- |
| COCc1c(C(C)C)nc(C(C)C)c(/C=C/[C@@H](O)C[C@@H](O)CC(=O)O)c1-c1ccc(F)cc1 [Cerivastatin, cerivastatin] | – | – | – | – | – | – | 47.4 ± 22.5 | – | – | – | – | – | – | – | – | – |
